Data from PubChem BioAssay (NCI).
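How tested: cells in 96-well plates exposed to compound for 48 hours at five concentrations. TGI denotes the concentration required for complete inhibition of growth.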

What was measured:
Experiment in all cases: NCI tumour cell line growth inhibition, 48 h
786-0 renal = test system: 786-0 renal
A549 NSCLC = test system: A549 NSCLC
HCT-116 colon = test system: HCT-116 colon
HL-60(TB) leukemia = test system: HL-60(TB) leukemia
K-562 leukemia = test system: K-562 leukemia
M14 melanoma = test system: M14 melanoma
NCI-H226 lung = test system: NCI-H226 lung
RXF 393 renal = test system: RXF 393 renal
SF-295 CNS = test system: SF-295 CNS
SK-OV-3 ovarian = test system: SK-OV-3 ovarian
UACC-257 melanoma = test system: UACC-257 melanoma
UO-31 renal = test system: UO-31 renal
ACHN renal = test system: ACHN renal
DU-145 prostate = test system: DU-145 prostate
MCF7 breast = test system: MCF7 breast
MDA-N = test system: MDA-N
HS 578T breast = test system: HS 578T breast
IGROV1 ovarian = test system: IGROV1 ovarian

CCCCCC(CN1CCOCC1)C(=O)/C=C/c1ccccc1 (stereo not drawn)
TGI (786-0 renal): 3.14 µM | TGI (A549 NSCLC): 12 µM | TGI (HCT-116 colon): 3.34 µM | TGI (HL-60(TB) leukemia): 5.42 µM | TGI (K-562 leukemia): 5.85 µM | TGI (M14 melanoma): 5.44 µM | TGI (NCI-H226 lung): 9.31 µM | TGI (RXF 393 renal): 3.47 µM | TGI (SF-295 CNS): 10.2 µM | TGI (SK-OV-3 ovarian): 11.8 µM | TGI (UACC-257 melanoma): 7.83 µM | TGI (UO-31 renal): 20.1 µM

NC(=O)NC(=O)c1cnccn1
TGI (786-0 renal): > 100 µM | TGI (A549 NSCLC): > 100 µM | TGI (ACHN renal): > 100 µM | TGI (DU-145 prostate): > 100 µM | TGI (HCT-116 colon): > 100 µM | TGI (K-562 leukemia): > 100 µM | TGI (M14 melanoma): > 100 µM | TGI (MCF7 breast): > 100 µM | TGI (MDA-N): > 100 µM | TGI (NCI-H226 lung): > 100 µM | TGI (RXF 393 renal): > 100 µM | TGI (SF-295 CNS): > 100 µM | TGI (SK-OV-3 ovarian): > 100 µM | TGI (UACC-257 melanoma): > 100 µM | TGI (UO-31 renal): > 100 µM

CSC1=N/C(=C\c2ccc(C)cc2)C(=O)N1CN1CCOCC1
TGI (786-0 renal): > 100 µM | TGI (A549 NSCLC): > 100 µM | TGI (ACHN renal): > 100 µM | TGI (DU-145 prostate): > 100 µM | TGI (HCT-116 colon): > 100 µM | TGI (HL-60(TB) leukemia): > 100 µM | TGI (HS 578T breast): > 100 µM | TGI (IGROV1 ovarian): > 100 µM | TGI (K-562 leukemia): > 100 µM | TGI (M14 melanoma): > 100 µM | TGI (MCF7 breast): > 100 µM | TGI (MDA-N): > 100 µM | TGI (NCI-H226 lung): > 100 µM | TGI (SF-295 CNS): > 100 µM | TGI (SK-OV-3 ovarian): > 100 µM | TGI (UO-31 renal): > 100 µM

c1ccc2c(c1)ccc1nc(-c3ccc4c(c3)OCO4)c3c(c12)CCCC3
TGI (786-0 renal): > 100 µM | TGI (A549 NSCLC): > 100 µM | TGI (ACHN renal): > 100 µM | TGI (HCT-116 colon): > 100 µM | TGI (HS 578T breast): 28.5 µM | TGI (K-562 leukemia): > 100 µM | TGI (M14 melanoma): > 100 µM | TGI (MCF7 breast): > 100 µM | TGI (MDA-N): > 100 µM | TGI (NCI-H226 lung): > 100 µM | TGI (SF-295 CNS): > 100 µM | TGI (SK-OV-3 ovarian): > 100 µM | TGI (UACC-257 melanoma): > 100 µM | TGI (UO-31 renal): 90.8 µM

O=C(NN=C1CCN(Cc2ccccc2)CC1)C(O)(c1ccccc1)c1ccccc1
TGI (786-0 renal): > 100 µM | TGI (A549 NSCLC): > 100 µM | TGI (DU-145 prostate): > 100 µM | TGI (HCT-116 colon): > 100 µM | TGI (HL-60(TB) leukemia): > 100 µM | TGI (HS 578T breast): > 100 µM | TGI (IGROV1 ovarian): > 100 µM | TGI (M14 melanoma): > 100 µM | TGI (MCF7 breast): > 100 µM | TGI (NCI-H226 lung): > 100 µM | TGI (RXF 393 renal): > 100 µM | TGI (SF-295 CNS): > 100 µM | TGI (SK-OV-3 ovarian): > 100 µM | TGI (UACC-257 melanoma): > 100 µM | TGI (UO-31 renal): > 100 µM

CCN(CC)CCn1c(C(C)(C)C)nc2ccccc21
TGI (786-0 renal): > 100 µM | TGI (A549 NSCLC): > 100 µM | TGI (ACHN renal): > 100 µM | TGI (DU-145 prostate): > 100 µM | TGI (HCT-116 colon): > 100 µM | TGI (HL-60(TB) leukemia): > 100 µM | TGI (IGROV1 ovarian): > 100 µM | TGI (K-562 leukemia): > 100 µM | TGI (M14 melanoma): > 100 µM | TGI (MCF7 breast): > 100 µM | TGI (MDA-N): > 100 µM | TGI (NCI-H226 lung): > 100 µM | TGI (RXF 393 renal): > 100 µM | TGI (SF-295 CNS): > 100 µM | TGI (SK-OV-3 ovarian): > 100 µM | TGI (UACC-257 melanoma): > 100 µM | TGI (UO-31 renal): > 100 µM

CC1C(c2ccc(F)cc2)c2cc3c(cc2OC1N1CCCC1)OCO3 (stereo not drawn)
TGI (786-0 renal): > 100 µM | TGI (A549 NSCLC): > 100 µM | TGI (ACHN renal): > 100 µM | TGI (DU-145 prostate): > 100 µM | TGI (HCT-116 colon): > 100 µM | TGI (HS 578T breast): 54.8 µM | TGI (IGROV1 ovarian): > 100 µM | TGI (K-562 leukemia): > 100 µM | TGI (M14 melanoma): > 100 µM | TGI (MCF7 breast): > 100 µM | TGI (MDA-N): > 100 µM | TGI (SF-295 CNS): > 100 µM | TGI (UACC-257 melanoma): > 100 µM | TGI (UO-31 renal): > 100 µM

CC1=C2C(O)C(C(C)C(=O)NCC(C)C)CCC2(C)C=CC1=O (stereo not drawn)
TGI (A549 NSCLC): > 100 µM | TGI (HCT-116 colon): > 100 µM | TGI (HL-60(TB) leukemia): > 100 µM | TGI (IGROV1 ovarian): > 100 µM | TGI (K-562 leukemia): > 100 µM | TGI (MCF7 breast): > 100 µM | TGI (NCI-H226 lung): > 100 µM | TGI (RXF 393 renal): > 100 µM | TGI (SF-295 CNS): > 100 µM | TGI (UACC-257 melanoma): > 100 µM | TGI (UO-31 renal): > 100 µM

CC(=O)ON(OC(C)=O)c1ccc(C)cc1
TGI (786-0 renal): > 100 µM | TGI (A549 NSCLC): > 100 µM | TGI (ACHN renal): > 100 µM | TGI (DU-145 prostate): > 100 µM | TGI (HCT-116 colon): > 100 µM | TGI (HS 578T breast): > 100 µM | TGI (IGROV1 ovarian): > 100 µM | TGI (K-562 leukemia): > 100 µM | TGI (M14 melanoma): > 100 µM | TGI (MCF7 breast): > 100 µM | TGI (MDA-N): > 100 µM | TGI (RXF 393 renal): > 100 µM | TGI (SF-295 CNS): > 100 µM | TGI (SK-OV-3 ovarian): > 100 µM | TGI (UACC-257 melanoma): > 100 µM | TGI (UO-31 renal): > 100 µM

S=c1[nH]nc(COc2ccc3c(c2)CCCC3)n1/N=C/c1ccc(Cl)cc1
TGI (A549 NSCLC): 35.8 µM | TGI (ACHN renal): 36 µM | TGI (DU-145 prostate): 33 µM | TGI (HCT-116 colon): 28.6 µM | TGI (HL-60(TB) leukemia): 40.7 µM | TGI (HS 578T breast): 39.7 µM | TGI (IGROV1 ovarian): 30.6 µM | TGI (K-562 leukemia): 50.2 µM | TGI (M14 melanoma): 34.5 µM | TGI (MCF7 breast): 27.9 µM | TGI (MDA-N): 33.5 µM | TGI (RXF 393 renal): 28.8 µM | TGI (SF-295 CNS): 33.7 µM | TGI (SK-OV-3 ovarian): 32.4 µM | TGI (UACC-257 melanoma): 48.1 µM | TGI (UO-31 renal): 31.4 µM

C=C1C(=O)O[C@@H]2[C@H]3O[C@]3(C)CCC=C(C)CC[C@@H]12
TGI (A549 NSCLC): 202 µM | TGI (HCT-116 colon): 35.1 µM | TGI (HL-60(TB) leukemia): 23.4 µM | TGI (IGROV1 ovarian): 52.4 µM | TGI (K-562 leukemia): 130 µM | TGI (MCF7 breast): 47.4 µM | TGI (NCI-H226 lung): 49.1 µM | TGI (RXF 393 renal): 27.4 µM | TGI (SF-295 CNS): 83.2 µM | TGI (SK-OV-3 ovarian): 131 µM | TGI (UACC-257 melanoma): 34.9 µM | TGI (UO-31 renal): 91.9 µM

Cn1cc(C(=O)c2nccc3c2cnc2ccccc23)ccc1=O
TGI (786-0 renal): > 100 µM | TGI (A549 NSCLC): > 100 µM | TGI (ACHN renal): > 100 µM | TGI (DU-145 prostate): > 100 µM | TGI (HCT-116 colon): > 100 µM | TGI (HL-60(TB) leukemia): > 100 µM | TGI (HS 578T breast): > 100 µM | TGI (K-562 leukemia): > 100 µM | TGI (M14 melanoma): > 100 µM | TGI (MDA-N): > 100 µM | TGI (NCI-H226 lung): > 100 µM | TGI (RXF 393 renal): 8.62 µM | TGI (SF-295 CNS): > 100 µM | TGI (SK-OV-3 ovarian): > 100 µM | TGI (UACC-257 melanoma): > 100 µM | TGI (UO-31 renal): > 100 µM

Cc1ccc(Nc2nc(=S)[nH]c3[nH]ncc23)cc1
TGI (786-0 renal): > 100 µM | TGI (A549 NSCLC): > 100 µM | TGI (ACHN renal): > 100 µM | TGI (DU-145 prostate): > 100 µM | TGI (HCT-116 colon): > 100 µM | TGI (HL-60(TB) leukemia): > 100 µM | TGI (HS 578T breast): > 100 µM | TGI (IGROV1 ovarian): > 100 µM | TGI (K-562 leukemia): > 100 µM | TGI (M14 melanoma): > 100 µM | TGI (MCF7 breast): > 100 µM | TGI (NCI-H226 lung): > 100 µM | TGI (RXF 393 renal): > 100 µM | TGI (SF-295 CNS): > 100 µM | TGI (SK-OV-3 ovarian): > 100 µM | TGI (UACC-257 melanoma): > 100 µM | TGI (UO-31 renal): > 100 µM

Cc1ccc(-c2c(C#N)c(-c3ccc(Cl)cc3)c(C#N)c(=O)n2NS(=O)(=O)c2ccccc2)cc1
TGI (786-0 renal): > 100 µM | TGI (A549 NSCLC): > 100 µM | TGI (ACHN renal): > 100 µM | TGI (HCT-116 colon): > 100 µM | TGI (HL-60(TB) leukemia): > 100 µM | TGI (HS 578T breast): > 100 µM | TGI (IGROV1 ovarian): > 100 µM | TGI (K-562 leukemia): > 100 µM | TGI (M14 melanoma): > 100 µM | TGI (MCF7 breast): > 100 µM | TGI (MDA-N): > 100 µM | TGI (NCI-H226 lung): > 100 µM | TGI (RXF 393 renal): > 100 µM | TGI (SF-295 CNS): > 100 µM | TGI (SK-OV-3 ovarian): > 100 µM | TGI (UACC-257 melanoma): > 100 µM

CC(=O)/C(C=Nc1c(C)n(C)n(-c2ccccc2)c1=O)=C(/C)O
TGI (786-0 renal): > 100 µM | TGI (A549 NSCLC): > 100 µM | TGI (ACHN renal): > 100 µM | TGI (DU-145 prostate): > 100 µM | TGI (HCT-116 colon): > 100 µM | TGI (HL-60(TB) leukemia): > 100 µM | TGI (IGROV1 ovarian): > 100 µM | TGI (K-562 leukemia): > 100 µM | TGI (M14 melanoma): > 100 µM | TGI (MCF7 breast): > 100 µM | TGI (NCI-H226 lung): > 100 µM | TGI (RXF 393 renal): > 100 µM | TGI (SF-295 CNS): > 100 µM | TGI (SK-OV-3 ovarian): > 100 µM | TGI (UACC-257 melanoma): > 100 µM | TGI (UO-31 renal): > 100 µM
